Results on 23 compounds are retold here after patent US20240208969A1, “SUBSTITUTED FUSED BICYCLIC COMPOUNDS AS PARP INHIBITORS AND THE USE THEREOF” (IMPACT THERAPEUTICS (SHANGHAI), INC., priority 2021, published 2024).

In general, IC50 refers to the concentration at which inhibition is half-maximal.

For one experiment, the target named is PARP1 (Homo sapiens, UniProt P09874). The experiment is described as follows: PARP1 chemiluminescent assay. The class given is biochemical. The note with it: recombinant PARP1 enzyme activity, chemiluminescence. The protocol:
(§1) Mix the solution of recombinant poly ADP ribotransferase 1 and 2 (PARP1 and PARP2) (40 ng enzyme/well) and the compounds to be tested, respectively. And then added to a 96-well plate coated with […] mixture, incubated at room temperature for 1 h. Then add 50 μL 0.3 ng/mL Streptavidin-HRP to each well. The plates were incubated for 30 minutes at room temperature. Finally, the plates were treated with streptavidin-HRP followed by addition of the ELISA ECL substrate to produce chemiluminescence that can then be measured using a chemiluminescence reader. The inhibition rate of the compound to PARP1/2 enzyme activity was calculated according to the following formula. [formula] IC50 value is obtained by fitting the s-shaped dose response curve equation by using XL Fit software. The curve equation is Y=100/(1+10^(log C−log IC50)), C is the compound concentration. Table 1 summarizes the inhibitory effects of compounds on PARP1 and PARP2 enzyme activity (IC50), wherein +++++ indicates IC50≤1 nM; ++++ indicates 1<IC50≤10 nM; +++ indicates 10 nM<IC50≤100 nM: ++ indicates 100 nM<IC50≤1 μM; + indicates IC50>1 μM.

Another experiment addresses PARP2 (Homo sapiens, UniProt Q9UGN5). The experiment is described as follows: PARP2 chemiluminescent assay. The class given is biochemical. The note with it: recombinant PARP2 enzyme activity, chemiluminescence. The protocol:
as §1

The next experiment relates to MDA-MB-436 cells. The experiment in a line: Inhibition of proliferation of human breast cancer MDA-MB-436 cell line (CCK-8, 7 days). In kind it is cell-based. The note with it: proliferation of MDA-MB-436, 7 days. The gist of the method: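 Cells seeded at 3000/well were treated next day with 8 serial doses (DMSO control) for 7 days at 37° C., 5% CO2, with compound medium changed on day four. CCK-8 was added for 4 hours and OD read as 450 nm minus 650 nm. IC50 came from a sigmoidal fit of survival relative to DMSO.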

Sequence of PARP1 (P09874 whole entry): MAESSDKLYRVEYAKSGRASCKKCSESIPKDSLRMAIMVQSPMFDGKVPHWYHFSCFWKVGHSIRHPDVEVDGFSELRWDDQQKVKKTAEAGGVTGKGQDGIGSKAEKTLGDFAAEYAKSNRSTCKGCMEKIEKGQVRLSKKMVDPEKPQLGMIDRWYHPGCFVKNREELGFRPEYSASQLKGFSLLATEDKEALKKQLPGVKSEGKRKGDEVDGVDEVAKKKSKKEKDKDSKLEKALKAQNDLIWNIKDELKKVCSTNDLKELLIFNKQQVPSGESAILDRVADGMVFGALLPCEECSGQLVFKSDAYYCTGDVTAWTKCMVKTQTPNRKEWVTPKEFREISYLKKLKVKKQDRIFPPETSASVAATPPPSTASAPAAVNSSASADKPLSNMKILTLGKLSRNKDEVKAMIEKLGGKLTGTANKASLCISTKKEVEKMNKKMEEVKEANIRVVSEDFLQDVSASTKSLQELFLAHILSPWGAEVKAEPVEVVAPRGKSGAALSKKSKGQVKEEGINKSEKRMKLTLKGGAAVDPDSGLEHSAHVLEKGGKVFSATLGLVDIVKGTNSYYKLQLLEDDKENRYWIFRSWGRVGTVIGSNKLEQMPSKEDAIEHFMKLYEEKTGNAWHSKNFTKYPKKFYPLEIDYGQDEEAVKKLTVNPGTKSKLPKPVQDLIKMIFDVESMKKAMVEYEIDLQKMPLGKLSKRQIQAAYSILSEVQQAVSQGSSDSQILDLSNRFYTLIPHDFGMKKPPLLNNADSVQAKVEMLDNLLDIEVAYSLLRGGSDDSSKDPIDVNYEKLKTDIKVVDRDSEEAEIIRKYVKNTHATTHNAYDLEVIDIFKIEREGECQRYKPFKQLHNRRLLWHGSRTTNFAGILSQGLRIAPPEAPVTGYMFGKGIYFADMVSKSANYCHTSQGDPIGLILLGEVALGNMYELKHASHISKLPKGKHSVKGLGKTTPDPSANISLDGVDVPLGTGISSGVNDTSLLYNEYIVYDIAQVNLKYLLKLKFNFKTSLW
Sequence of PARP2 (Q9UGN5 whole entry, species assumed): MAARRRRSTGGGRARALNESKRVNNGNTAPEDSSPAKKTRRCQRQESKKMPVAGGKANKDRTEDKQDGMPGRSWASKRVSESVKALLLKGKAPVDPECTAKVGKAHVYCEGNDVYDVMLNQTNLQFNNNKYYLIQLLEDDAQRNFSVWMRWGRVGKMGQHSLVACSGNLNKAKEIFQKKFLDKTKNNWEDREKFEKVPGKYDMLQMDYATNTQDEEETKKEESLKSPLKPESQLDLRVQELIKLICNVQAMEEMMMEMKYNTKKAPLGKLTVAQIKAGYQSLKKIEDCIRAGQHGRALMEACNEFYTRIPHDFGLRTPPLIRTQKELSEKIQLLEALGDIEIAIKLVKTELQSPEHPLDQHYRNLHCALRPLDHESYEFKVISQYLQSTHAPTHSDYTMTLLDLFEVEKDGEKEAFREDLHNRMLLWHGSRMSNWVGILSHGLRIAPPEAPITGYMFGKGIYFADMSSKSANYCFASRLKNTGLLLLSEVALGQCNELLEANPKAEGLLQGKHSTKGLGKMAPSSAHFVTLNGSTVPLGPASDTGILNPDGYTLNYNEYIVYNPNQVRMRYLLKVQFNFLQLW

With `CCn1c(=O)[nH]c2cc(CN3CCN(c4ccc(C(=O)NC)nc4Cl)CC3)cc(Cl)c2c1=O` [Example 63, 6-chloro-5-(4-((5-chloro-3-ethyl-2,4-dioxo-1,2,3,4-tetrahydroquinazolin-7-yl)methyl)piperazin-1-yl)-N-methylpicolinamide], the IC50 is 1 to 10 nM on PARP1; 100 to 1000 nM on PARP2; 1 to 10 nM in the experiment with MDA-MB-436 cells (Homo sapiens, 168 h).

For the compound `O=C(c1cc(Cn2c(=O)[nH]c(=O)c3c(F)cccc32)ccc1F)N1CCN(c2ncccn2)CC1` [Senaparib, reference compound], the IC50 on PARP1, on PARP2 and with MDA-MB-436 cells was 1 to 10 nM each time.

Take `CCn1c(=O)[nH]c2cc(CN3CCN(c4ccc(C(N)=O)nc4F)CC3)ccc2c1=O` [Example 32, 5-(4-((3-ethyl-2,4-dioxo-1,2,3,4-tetrahydroquinazolin-7-yl)methyl)piperazin-1-yl)-6-fluoropicolinamide]: the IC50 at PARP1 was 1 to 10 nM; at PARP2, 100 to 1000 nM; with MDA-MB-436 cells (Homo sapiens, 168 h) it was 10 to 100 nM.

Consider `CCn1c(=O)[nH]c2cc(CN3CCN(c4ccc(C(=O)NC)nn4)CC3)ccc2c1=O` [Example 29, 6-(4-((3-ethyl-2,4-dioxo-1,2,3,4-tetrahydroquinazolin-7-yl)methyl)piperazin-1-yl)-N-methylpyridazine-3-carboxamide], for which the IC50 on PARP1 is 1 to 10 nM; on PARP2 it was 100 to 1000 nM; in the experiment with MDA-MB-436 cells (Homo sapiens, 168 h), above 1000 nM.

On to `CCn1c(=O)[nH]c2cc(CN3CCN(c4ccc(C(=O)NC)nc4C)CC3)cnc2c1=O` [Example 4, 5-(4-((3-ethyl-2,4-dioxo-1,2,3,4-tetrahydropyrido[3,2-d]pyrimidin-7-yl)methyl)piperazin-1-yl)-N,6-dimethylpicolinamide], for which the IC50 on PARP1 was 1 to 10 nM; at PARP2 it was above 1000 nM; with MDA-MB-436 cells (Homo sapiens, 168 h) it was 10 to 100 nM.

As for `CCn1c(=O)[nH]c2cc(CN3CCN(c4ccc(C(=O)NC)nc4Cl)CC3)cnc2c1=O` [Example 10, 5-(4-((3-ethyl-2,4-dioxo-1,2,3,4-tetrahydropyrido[3,2-d]pyrimidin-7-yl)methyl)piperazin-1-yl)-6-chloro-N-methylpicolinamide], the IC50 is 1 to 10 nM at PARP1; above 1000 nM on PARP2; above 1000 nM with MDA-MB-436 cells (Homo sapiens, 168 h).

On to `CCn1c(=O)[nH]c2cc(CN3CCN(c4ccc(C(=O)NC(C)C)nc4F)CC3)ccc2c1=O` [Example 34, 5-(4-((3-ethyl-2,4-dioxo-1,2,3,4-tetrahydroquinazolin-7-yl)methyl)piperazin-1-yl)-6-fluoro-N-isopropylpicolinamide], for which the IC50 at PARP1 was in the range of 1 to 10 nM; on PARP2, 100 to 1000 nM; in the experiment with MDA-MB-436 cells (Homo sapiens, 168 h), 10 to 100 nM.

`CNC(=O)c1ccc(N2CCN(Cc3ccc4c(=O)n(C)c(=O)[nH]c4c3)CC2)c(F)n1` [Example 17, 5-(4-((3-methyl-2,4-dioxo-1,2,3,4-tetrahydroquinazolin-7-yl)methyl)piperazin-1-yl)-6-fluoro-N-methylpicolinamide]: the IC50 on PARP1 was 1 to 10 nM; at PARP2, above 1000 nM; with MDA-MB-436 cells (Homo sapiens, 168 h), 10 to 100 nM.

For `CCCn1c(=O)[nH]c2cc(CN3CCN(c4ccc(C(=O)NC)nc4F)CC3)ccc2c1=O` [Example 19, 5-(4-((2,4-dioxo-3-propyl-1,2,3,4-tetrahydroquinazolin-7-yl)methyl)piperazin-1-yl)-6-fluoro-N-methylpicolinamide], the IC50 on PARP1 was 1 to 10 nM; on PARP2, above 1000 nM; with MDA-MB-436 cells (Homo sapiens, 168 h), 10 to 100 nM.

Consider `CCn1c(=O)[nH]c2cc(CN3CCN(c4ccc(C(=O)NC)nc4F)CC3)ccc2c1=O` [Example 13, 5-(4-((3-ethyl-2,4-dioxo-1,2,3,4-tetrahydroquinazolin-7-yl)methyl)piperazin-1-yl)-6-fluoro-N-methylpicolinamide], for which the IC50 was 1 to 10 nM on PARP1; 100 to 1000 nM on PARP2; 1 to 10 nM in the experiment with MDA-MB-436 cells (Homo sapiens, 168 h).

With `CCn1c(=O)[nH]c2cc(CN3CCN(c4cnc(C(=O)NC)nc4)CC3)ccc2c1=O` [Example 27], the IC50 is 1 to 10 nM on PARP1; 100 to 1000 nM on PARP2; above 1000 nM in the experiment with MDA-MB-436 cells (Homo sapiens, 168 h).

As for `CCn1c(=O)[nH]c2cc(CN3CCN(c4ccc(C(=O)NC)nc4)CC3)cnc2c1=O` [Example 1, 5-(4-((3-ethyl-2,4-dioxo-1,2,3,4-tetrahydropyrido[3,2-d]pyrimidin-7-yl)methyl)piperazin-1-yl)-N-methylpicolinamide], the IC50 at PARP1 was at most 1 nM; on PARP2, 100 to 1000 nM; in the experiment with MDA-MB-436 cells (Homo sapiens, 168 h), above 1000 nM.

Consider `CCCn1c(=O)[nH]c2cc(-c3cccc(C(=O)Nc4ccc(C(=O)NC)nc4)c3)ccc2c1=O` [Example 47, 5-(3-(3-propyl-2,4-dioxo-1,2,3,4-tetrahydroquinazolin-7-yl)benzamido)-N-methylpicolinamide], for which the IC50 was 10 to 100 nM at PARP1; above 1000 nM on PARP2; above 1000 nM with MDA-MB-436 cells (Homo sapiens, 168 h).

Take `CCn1c(=O)[nH]c2cc(CN3CCN(c4ccc(C(=O)NC)nc4C)CC3)c(F)cc2c1=O` [Example 67, 5-(4-((3-ethyl-6-fluoro-2,4-dioxo-1,2,3,4-tetrahydroquinazolin-7-yl)methyl)piperazin-1-yl)-N,6-dimethylpicolinamide]: the IC50 at PARP1 was 10 to 100 nM; on PARP2 it was above 1000 nM; in the experiment with MDA-MB-436 cells (Homo sapiens, 168 h) it was 100 to 1000 nM.

For `CCN1Cc2ccc(CN3CCN(c4ccc(C(=O)NC)nc4F)CC3)cc2NC1=O` [Example 114, 5-(4-((3-ethyl-2-oxo-1,2,3,4-tetrahydroquinazolin-7-yl)methyl)piperazin-1-yl)-6-fluoro-N-methylpicolinamide], the IC50 at PARP1 is 1 to 10 nM; on PARP2 it was above 1000 nM; in the experiment with MDA-MB-436 cells (Homo sapiens, 168 h), 10 to 100 nM.

With `CCn1c(=O)[nH]c2cc(CN3CCN(c4ccc(C(=O)NC)nc4F)CC3)cc(F)c2c1=O` [Example 25, 5-(4-((3-ethyl-5-fluoro-2,4-dioxo-1,2,3,4-tetrahydroquinazolin-7-yl)methyl)piperazin-1-yl)-6-fluoro-N-methylpicolinamide], the IC50 on PARP1 was 1 to 10 nM; on PARP2, 100 to 1000 nM; in the experiment with MDA-MB-436 cells (Homo sapiens, 168 h), 1 to 10 nM.

As to `CCn1c(=O)[nH]c2c(F)c(CN3CCN(c4ccc(C(=O)NC)nc4F)CC3)ccc2c1=O` [Example 24, 5-(4-((3-ethyl-8-fluoro-2,4-dioxo-1,2,3,4-tetrahydroquinazolin-7-yl)methyl)piperazin-1-yl)-6-fluoro-N-methylpicolinamide], the IC50 at PARP1 was 10 to 100 nM; on PARP2, above 1000 nM; in the experiment on MDA-MB-436 cells (Homo sapiens, 168 h), 10 to 100 nM.

`CCn1c(=O)[nH]c2cc(CN3CCN(c4ccc(C(=O)NC)nc4Cl)CC3)cc(F)c2c1=O` [Example 62, 6-chloro-5-(4-((3-ethyl-5-fluoro-2,4-dioxo-1,2,3,4-tetrahydroquinazolin-7-yl)methyl)piperazin-1-yl)-N-methylpicolinamide]: the IC50 at PARP1 is 1 to 10 nM; at PARP2, 100 to 1000 nM; in the experiment with MDA-MB-436 cells (Homo sapiens, 168 h), 10 to 100 nM.

Take `CCN1Cc2ccc(CN3CCN(c4ccc(C(=O)NC)nc4)CC3)cc2NC1=O` [Example 15, 5-(4-((3-ethyl-2-oxo-1,2,3,4-tetrahydroquinazolin-7-yl)methyl)piperazin-1-yl)-N-methylpicolinamide]: the IC50 at PARP1 was 1 to 10 nM; on PARP2, above 1000 nM; with MDA-MB-436 cells (Homo sapiens, 168 h), 100 to 1000 nM.

For `CCn1c(=O)[nH]c2cc(-c3cccc(C(=O)Nc4ccc(C(=O)NC)nc4)c3)ccc2c1=O` [Example 41, 5-(3-(3-ethyl-2,4-dioxo-1,2,3,4-tetrahydroquinazolin-7-yl)benzamido)-N-methylpicolinamide], the IC50 on PARP1 is 1 to 10 nM; on PARP2 it was above 1000 nM; in the experiment with MDA-MB-436 cells (Homo sapiens, 168 h), above 1000 nM.

In the case of `CCn1c(=O)[nH]c2cc(CN3CCN(c4ccc(C(=O)NC5CC5)nc4F)CC3)ccc2c1=O` [Example 135, N-cyclopropyl-5-(4-((3-ethyl-2,4-dioxo-1,2,3,4-tetrahydroquinazolin-7-yl)methyl)piperazin-1-yl)-6-fluoropicolinamide], the IC50 was in the range of 1 to 10 nM on PARP1; 100 to 1000 nM at PARP2; 1 to 10 nM in the experiment with MDA-MB-436 cells (Homo sapiens, 168 h).

Take `CCNC(=O)c1ccc(N2CCN(Cc3cc(F)c4c(=O)n(CC)c(=O)[nH]c4c3)CC2)c(Cl)n1` [Example 104, 6-chloro-N-ethyl-5-(4-((3-ethyl-5-fluoro-2,4-dioxo-1,2,3,4-tetrahydroquinazolin-7-yl)methyl)piperazin-1-yl)picolinamide]: the IC50 on PARP1 is 1 to 10 nM; at PARP2 it was above 1000 nM; in the experiment with MDA-MB-436 cells (Homo sapiens, 168 h), 1 to 10 nM.

With `CCn1c(=O)[nH]c2cc(CN3CCN(c4ccc(C(=O)NC)nc4F)CC3)c(F)cc2c1=O` [Example 14, 5-(4-((3-ethyl-6-fluoro-2,4-dioxo-1,2,3,4-tetrahydroquinazolin-7-yl)methyl)piperazin-1-yl)-6-fluoro-N-methylpicolinamide], the IC50 on PARP1 was in the range of 1 to 10 nM; at PARP2, 100 to 1000 nM; with MDA-MB-436 cells (Homo sapiens, 168 h) it was 10 to 100 nM.
